Format in all cases: functional, cell-based
One experiment deals with SK-MEL-28. Put plainly: Cytotoxicity against human SK-MEL-28 cells.
In the next experiment the test system is HT-29. The experiment is described as follows: Cytotoxicity against human HT-29 cells.
In the next experiment the test system is A549. The experiment is described as follows: Cytotoxicity against human A549 cells.
For a further experiment, the system named is P388. The experiment is described as follows: Cytotoxicity against mouse P388 cells.

Consider `CC[C@H](C)[C@@H](C(=O)N[C@H](C(=O)N(C)[C@@H](C(C)C)[C@@H](CC(=O)N1CCC[C@H]1[C@H](OC)[C@@H](C)C(=O)O[C@H](CO)Cc1ccccc1)OC)C(C)C)N(C)C` [MALEVAMIDE D], for which the IC50 (usually the concentration at which inhibition is half-maximal) amounted to 0.7 nM in the experiment on SK-MEL-28, 0.3 nM with HT-29, 0.3 nM in the experiment on A549 and 0.3 nM in the experiment with P388.
